In US12576063B2, “Implantable drug delivery devices for localized drug delivery” (priority 2020, dated 2026):

Tests used:
[1] = Solid tissue and prostate gland drug quantification 55 days post-implantation; conditions: for liver level: average; for whole prostate gland level: centre transverse section not included; for level in 5 mm punch biopsies surrounding device implants: prostate tissue within ~5 mm of device
Procedure: (§1) In this study, three canines, at least fifteen months old, were employed. […] An 18-gauge brachytherapy needle (OD 1.27 mm) was used for device implantation. Clinical observations and body weight were recorded.
(§2) 55 days post-implantation, study animals were euthanized and underwent gross necropsy. […] Prostate glands were trimmed and cut in three section perpendicular to the urethra: a cranial (rostral) section, a 3-5 mm transverse section, and a caudal section. […] The transverse piece in its entirety was sent for histopathological evaluation.

[2] = test system: prostate cancer cells; conditions: cited from earlier work
[3] = in vivo; conditions: male, dog
Procedure: as §1, §2

[4] = Plasma drug quantification after implantation of two devices into canine prostate; parameters: species or system canines; conditions: male, dog, in vivo
Procedure: Clinical observations and body weight were recorded.
Placement of devices was confirmed by transrectal ultrasound during implantation and 1, 7, 14, and 28 days post-implantation.
Note that the plasma levels as shown in FIGS. 6A and 6B are in micrograms for the oral dose while the scale is in ng/mL for the device plasma levels.

Structure (SMILES)	level in prostate tissue within ~5 mm of the device (molar) [1]	whole prostate gland level (molar) [1]	liver level [1]	whole prostate gland level [1]	level in 5 mm punch biopsies surrounding device implants [1]	IC50 [2]	concentration at 55 day ([3]; level in 5 mm punch biopsies surrounding device implants)	concentration at 55 day ([3]; liver level)	concentration at 55 day ([3]; whole prostate gland level)	time to plasma steady state [4]
C[C@](O)(CS(=O)(=O)c1ccc(F)cc1)C(=O)Nc1ccc(C#N)c(C(F)(F)F)c1 [R-bicalutamide]	1623 ± 562 nM	196.6 ± 23.5 nM	28 ± 9 ng/g	86 ± 10 ng/g	698 ± 242 ng/g	~1000 nM	–	–	–	–
C[C@@](O)(CS(=O)(=O)c1ccc(F)cc1)C(=O)Nc1ccc(C#N)c(C(F)(F)F)c1 [S-bicalutamide]	–	–	19 ± 7 ng/g	87 ± 11 ng/g	727 ± 259 ng/g	–	–	–	–	–
CC(O)(CS(=O)(=O)c1ccc(F)cc1)C(=O)Nc1ccc(C#N)c(C(F)(F)F)c1 (stereo not shown) [bicalutamide]	–	–	–	–	–	–	1430 ± 501 ng/g	47 ± 16 ng/g	172 ± 21 ng/g	~4 days
